The values that follow come from ChEMBL document CHEMBL1201862, “PubChem BioAssay data set” (2004).

The target in test [1] is T1, Corticotropin-releasing factor receptor 2/Corticotropin-releasing factor-binding protein (Homo sapiens, UniProt P24387+Q13324).
T1 sequence (Q13324 whole entry): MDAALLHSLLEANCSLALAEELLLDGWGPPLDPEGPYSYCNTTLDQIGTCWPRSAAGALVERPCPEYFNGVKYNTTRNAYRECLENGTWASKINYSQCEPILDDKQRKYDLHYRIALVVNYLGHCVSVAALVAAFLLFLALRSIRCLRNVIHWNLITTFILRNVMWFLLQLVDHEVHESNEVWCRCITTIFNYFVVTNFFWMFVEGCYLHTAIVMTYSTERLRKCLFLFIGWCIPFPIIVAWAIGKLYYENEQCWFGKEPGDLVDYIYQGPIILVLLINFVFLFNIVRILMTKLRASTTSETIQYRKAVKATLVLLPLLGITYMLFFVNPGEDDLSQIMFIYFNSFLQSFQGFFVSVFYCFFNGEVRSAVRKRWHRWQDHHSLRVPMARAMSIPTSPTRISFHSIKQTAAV
T1 sequence (P24387 whole entry): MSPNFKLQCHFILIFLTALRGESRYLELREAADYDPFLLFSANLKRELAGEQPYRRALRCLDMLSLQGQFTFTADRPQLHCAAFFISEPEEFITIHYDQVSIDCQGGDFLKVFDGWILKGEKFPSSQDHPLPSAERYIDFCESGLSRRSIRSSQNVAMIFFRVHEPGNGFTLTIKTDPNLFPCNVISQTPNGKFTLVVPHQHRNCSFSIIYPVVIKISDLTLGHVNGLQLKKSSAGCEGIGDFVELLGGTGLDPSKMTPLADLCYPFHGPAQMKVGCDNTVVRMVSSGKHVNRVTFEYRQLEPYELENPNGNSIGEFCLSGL
Description: activators of CRF receptor 2 with binding protein – uHTS hits, confirmation (AID 602473). It counts as functional. Particulars: read-out: EC50_Mean.

The target in test [2] is Arf-GAP with SH3 domain, ANK repeat and PH domain-containing protein 1 (Homo sapiens, UniProt Q9ULH1). It counts as functional.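 Further: biochemical fluorescence polarization dose–response screen measuring inhibition of ASAP1; ASAP1 GAP domain stimulating GTP hydrolysis by truncated human ARF1.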
Chain of Arf-GAP with SH3 domain, ANK repeat and PH domain-containing protein 1 (Q9ULH1 whole entry, the tested form may be a part): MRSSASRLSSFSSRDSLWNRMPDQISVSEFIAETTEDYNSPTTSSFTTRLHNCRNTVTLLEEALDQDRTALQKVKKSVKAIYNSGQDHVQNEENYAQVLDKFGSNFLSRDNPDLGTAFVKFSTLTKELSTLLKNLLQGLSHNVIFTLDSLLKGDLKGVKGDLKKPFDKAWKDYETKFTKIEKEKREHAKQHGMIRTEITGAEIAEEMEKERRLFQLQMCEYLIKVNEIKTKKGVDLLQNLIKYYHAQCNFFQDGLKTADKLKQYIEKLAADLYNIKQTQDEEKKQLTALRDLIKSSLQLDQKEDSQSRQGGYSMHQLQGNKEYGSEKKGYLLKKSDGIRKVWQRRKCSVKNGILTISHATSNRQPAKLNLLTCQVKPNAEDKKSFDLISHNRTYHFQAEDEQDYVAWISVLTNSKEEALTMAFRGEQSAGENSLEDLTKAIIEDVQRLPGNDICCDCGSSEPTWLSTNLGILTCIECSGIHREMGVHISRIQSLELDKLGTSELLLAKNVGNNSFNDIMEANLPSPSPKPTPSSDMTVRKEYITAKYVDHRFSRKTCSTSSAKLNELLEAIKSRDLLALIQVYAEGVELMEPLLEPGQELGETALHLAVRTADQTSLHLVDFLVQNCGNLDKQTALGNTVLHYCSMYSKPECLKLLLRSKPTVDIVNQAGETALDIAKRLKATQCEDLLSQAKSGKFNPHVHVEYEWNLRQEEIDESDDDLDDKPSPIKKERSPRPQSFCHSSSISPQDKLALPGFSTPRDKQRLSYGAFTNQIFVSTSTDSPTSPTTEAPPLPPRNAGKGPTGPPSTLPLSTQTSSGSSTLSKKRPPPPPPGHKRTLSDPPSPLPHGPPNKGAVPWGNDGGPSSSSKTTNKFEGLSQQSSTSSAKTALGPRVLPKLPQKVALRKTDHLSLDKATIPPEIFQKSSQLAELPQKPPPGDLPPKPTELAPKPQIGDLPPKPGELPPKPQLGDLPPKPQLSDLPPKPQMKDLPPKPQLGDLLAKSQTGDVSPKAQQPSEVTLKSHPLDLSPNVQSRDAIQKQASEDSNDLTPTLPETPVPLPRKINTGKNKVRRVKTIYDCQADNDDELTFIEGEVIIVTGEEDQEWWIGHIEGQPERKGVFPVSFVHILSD
The target in test [3] is T1, Corticotropin-releasing factor receptor 2/Corticotropin-releasing factor-binding protein. Description: Dose Response confirmation of uHTS hits for small molecule antagonists of the CRF-binding protein and CRF-R2 receptor complex. Particulars: read-out: IC50_Mean. In kind it is functional.
In test [4] the target is T2, DNA repair and recombination protein RAD54-like (Homo sapiens, UniProt Q92698).
T2 sequence (Q92698 whole entry): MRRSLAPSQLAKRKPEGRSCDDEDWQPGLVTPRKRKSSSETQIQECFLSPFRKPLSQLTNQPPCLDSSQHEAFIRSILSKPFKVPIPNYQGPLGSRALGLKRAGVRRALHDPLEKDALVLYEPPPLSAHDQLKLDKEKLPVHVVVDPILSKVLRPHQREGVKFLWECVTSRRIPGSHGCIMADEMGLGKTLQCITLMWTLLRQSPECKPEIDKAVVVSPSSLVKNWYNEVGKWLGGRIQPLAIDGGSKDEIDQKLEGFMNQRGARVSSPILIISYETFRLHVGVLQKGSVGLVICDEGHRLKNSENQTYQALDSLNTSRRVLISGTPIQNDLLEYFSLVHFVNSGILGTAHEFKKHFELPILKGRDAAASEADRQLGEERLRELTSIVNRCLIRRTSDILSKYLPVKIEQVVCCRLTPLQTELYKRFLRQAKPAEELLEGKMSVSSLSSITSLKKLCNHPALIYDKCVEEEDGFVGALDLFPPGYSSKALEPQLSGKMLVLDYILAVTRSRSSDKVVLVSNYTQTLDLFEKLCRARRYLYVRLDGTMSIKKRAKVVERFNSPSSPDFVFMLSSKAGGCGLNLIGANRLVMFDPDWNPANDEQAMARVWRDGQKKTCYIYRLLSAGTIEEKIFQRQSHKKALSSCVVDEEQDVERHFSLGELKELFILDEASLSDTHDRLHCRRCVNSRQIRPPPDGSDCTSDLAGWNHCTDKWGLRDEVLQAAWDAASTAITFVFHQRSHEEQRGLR
Description: inhibitors of human RAD54 branch migration, confirmation, biochemical, fluorescence, cherry-picked samples, dose series (AID 651657). It counts as functional.

Test [5] addresses T3, Probable nicotinate-nucleotide adenylyltransferase (Staphylococcus aureus (strain N315), UniProt P65502). In kind it is functional, Staphylococcus aureus subsp. aureus N315.
The target of test [6] is T3, Probable nicotinate-nucleotide adenylyltransferase. In kind it is functional, Staphylococcus aureus subsp. aureus N315. Particulars: read-out: IC50_Mean.
Test [7] can be described thus: Luminescence Cell-Based Dose Retest to Confirm Inhibitors of Cancer Stem Cells. [Related pubchem assays (depositor defined):AID2717, AID2721]. In kind it is functional. Particulars: Homo sapiens.
A short description of test [8]: cytotoxicity in HMLE control line with eGFP shRNA, dose response, counter-screen for HMLE_sh_ECad selective toxicity project, cell-based, HMLE_sh_eGFP, luminescence (AID 463074).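 Further: HMLE human mammary epithelial cells expressing control shRNA against eGFP.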 It counts as functional, Homo sapiens.
The nature of a further test: cells. In kind it is functional.
The nature of test [9]: Counterscreen for activators of the function of SWI/SNF related, matrix associated, actin dependent regulator of chromatin, subfamily a, member 2 (SMARCA2, BRM): Luminescence-based cell-based high throughput dose response assay to identify non-selective compounds using the VP16 reporter assay. It counts as functional. On the technique in general: A counterscreen serves to expose hits that act by an unwanted route or on another target.

For test [10], the target named is T4, Mannose-6-phosphate isomerase (Homo sapiens, UniProt P34949).
T4 sequence (P34949 whole entry): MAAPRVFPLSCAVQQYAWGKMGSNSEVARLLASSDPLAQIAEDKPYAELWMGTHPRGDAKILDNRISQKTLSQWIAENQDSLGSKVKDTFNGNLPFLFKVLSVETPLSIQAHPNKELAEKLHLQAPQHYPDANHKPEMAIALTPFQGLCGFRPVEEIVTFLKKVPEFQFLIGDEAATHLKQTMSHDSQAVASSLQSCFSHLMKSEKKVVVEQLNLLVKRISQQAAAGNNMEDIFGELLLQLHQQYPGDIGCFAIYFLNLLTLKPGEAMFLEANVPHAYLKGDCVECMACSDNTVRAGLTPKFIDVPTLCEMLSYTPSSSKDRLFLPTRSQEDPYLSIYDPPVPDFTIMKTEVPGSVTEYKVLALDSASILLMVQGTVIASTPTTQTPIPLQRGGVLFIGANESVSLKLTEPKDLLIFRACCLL
Description: human PMI inhibitors, high substrate, primary screen, biochemical, fluorescence intensity, high mannose 6-phosphate (AID 1220).

Test [11] is described as follows: Vero E6 cell cytotoxicity, dose response, cytotoxicity control for non-replicating M. tuberculosis project, secondary assay (AID 492998). Particulars: Vero C1008. It counts as functional, VeroE6.
The target in test [12] is T5, Replicative DNA helicase DnaB (Mycobacterium tuberculosis, UniProt P9WMR3).
T5 sequence (P9WMR3 whole entry): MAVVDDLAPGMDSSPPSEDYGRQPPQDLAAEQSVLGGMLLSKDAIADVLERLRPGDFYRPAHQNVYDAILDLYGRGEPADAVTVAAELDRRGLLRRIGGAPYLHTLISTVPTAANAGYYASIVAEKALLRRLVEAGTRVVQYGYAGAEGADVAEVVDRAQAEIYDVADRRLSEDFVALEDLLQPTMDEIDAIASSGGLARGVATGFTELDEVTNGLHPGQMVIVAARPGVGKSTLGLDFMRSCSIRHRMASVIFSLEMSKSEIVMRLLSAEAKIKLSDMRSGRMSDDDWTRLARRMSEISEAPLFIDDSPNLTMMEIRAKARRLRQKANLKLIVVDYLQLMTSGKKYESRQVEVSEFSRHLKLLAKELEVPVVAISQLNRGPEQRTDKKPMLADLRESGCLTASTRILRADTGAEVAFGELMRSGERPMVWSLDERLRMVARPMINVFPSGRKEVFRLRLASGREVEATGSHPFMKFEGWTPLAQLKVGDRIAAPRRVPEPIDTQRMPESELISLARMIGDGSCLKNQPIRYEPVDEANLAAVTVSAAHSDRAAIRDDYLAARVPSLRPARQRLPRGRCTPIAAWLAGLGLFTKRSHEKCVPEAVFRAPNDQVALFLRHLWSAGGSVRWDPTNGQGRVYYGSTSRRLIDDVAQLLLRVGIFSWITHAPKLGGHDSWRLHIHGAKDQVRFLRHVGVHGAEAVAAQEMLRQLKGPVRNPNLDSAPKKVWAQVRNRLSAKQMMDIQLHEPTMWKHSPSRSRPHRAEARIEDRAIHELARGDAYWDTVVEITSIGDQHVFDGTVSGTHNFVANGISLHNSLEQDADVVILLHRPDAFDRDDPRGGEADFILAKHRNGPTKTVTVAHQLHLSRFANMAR
Description: DnaB intein splicing inhibitors, dose response, biochemical, cell-free fluorescence (AID 449749). In kind it is functional.

A further test addresses T6, Protein RecA (Mycobacterium tuberculosis, UniProt P9WHJ3).
T6 sequence (P9WHJ3 whole entry): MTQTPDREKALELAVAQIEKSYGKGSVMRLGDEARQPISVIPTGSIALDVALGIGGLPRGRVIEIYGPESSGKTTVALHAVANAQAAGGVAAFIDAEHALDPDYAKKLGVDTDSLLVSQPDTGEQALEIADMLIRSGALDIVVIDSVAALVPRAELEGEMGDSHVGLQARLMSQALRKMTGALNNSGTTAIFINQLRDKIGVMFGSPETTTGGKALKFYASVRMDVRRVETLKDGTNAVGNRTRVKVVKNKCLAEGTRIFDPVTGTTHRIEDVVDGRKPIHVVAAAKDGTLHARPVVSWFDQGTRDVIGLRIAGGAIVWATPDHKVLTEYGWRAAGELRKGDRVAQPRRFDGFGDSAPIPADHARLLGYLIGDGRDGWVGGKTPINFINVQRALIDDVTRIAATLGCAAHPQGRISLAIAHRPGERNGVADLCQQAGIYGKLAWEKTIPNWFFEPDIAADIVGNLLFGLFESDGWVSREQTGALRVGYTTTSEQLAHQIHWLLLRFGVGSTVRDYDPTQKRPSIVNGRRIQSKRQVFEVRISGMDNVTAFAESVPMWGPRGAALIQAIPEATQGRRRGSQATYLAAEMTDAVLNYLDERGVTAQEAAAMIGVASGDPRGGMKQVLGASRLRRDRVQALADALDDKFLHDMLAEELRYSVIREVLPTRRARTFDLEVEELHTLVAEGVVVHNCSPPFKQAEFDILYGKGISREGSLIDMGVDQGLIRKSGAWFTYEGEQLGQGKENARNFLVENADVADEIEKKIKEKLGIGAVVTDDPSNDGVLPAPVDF
Description: Fluorescence Cell-Free Homogeneous Dose Retest to Identify Inhibitors of RecA-Intein Splicing Activity. [Related pubchem assays (depositor defined):AID2097, AID2223, AID489010, AID492950]. It counts as functional.

The target of test [13] is SWI/SNF-related matrix-associated actin-dependent regulator of chromatin subfamily A member 2 (Homo sapiens, UniProt P51531). Description: Luminescence-based cell-based high throughput dose response assay to identify activators of the function of SWI/SNF related, matrix associated, actin dependent regulator of chromatin, subfamily a, member 2 (SMARCA2, BRM). It counts as functional.
Chain of SWI/SNF-related matrix-associated actin-dependent regulator of chromatin subfamily A member 2 (P51531 whole entry): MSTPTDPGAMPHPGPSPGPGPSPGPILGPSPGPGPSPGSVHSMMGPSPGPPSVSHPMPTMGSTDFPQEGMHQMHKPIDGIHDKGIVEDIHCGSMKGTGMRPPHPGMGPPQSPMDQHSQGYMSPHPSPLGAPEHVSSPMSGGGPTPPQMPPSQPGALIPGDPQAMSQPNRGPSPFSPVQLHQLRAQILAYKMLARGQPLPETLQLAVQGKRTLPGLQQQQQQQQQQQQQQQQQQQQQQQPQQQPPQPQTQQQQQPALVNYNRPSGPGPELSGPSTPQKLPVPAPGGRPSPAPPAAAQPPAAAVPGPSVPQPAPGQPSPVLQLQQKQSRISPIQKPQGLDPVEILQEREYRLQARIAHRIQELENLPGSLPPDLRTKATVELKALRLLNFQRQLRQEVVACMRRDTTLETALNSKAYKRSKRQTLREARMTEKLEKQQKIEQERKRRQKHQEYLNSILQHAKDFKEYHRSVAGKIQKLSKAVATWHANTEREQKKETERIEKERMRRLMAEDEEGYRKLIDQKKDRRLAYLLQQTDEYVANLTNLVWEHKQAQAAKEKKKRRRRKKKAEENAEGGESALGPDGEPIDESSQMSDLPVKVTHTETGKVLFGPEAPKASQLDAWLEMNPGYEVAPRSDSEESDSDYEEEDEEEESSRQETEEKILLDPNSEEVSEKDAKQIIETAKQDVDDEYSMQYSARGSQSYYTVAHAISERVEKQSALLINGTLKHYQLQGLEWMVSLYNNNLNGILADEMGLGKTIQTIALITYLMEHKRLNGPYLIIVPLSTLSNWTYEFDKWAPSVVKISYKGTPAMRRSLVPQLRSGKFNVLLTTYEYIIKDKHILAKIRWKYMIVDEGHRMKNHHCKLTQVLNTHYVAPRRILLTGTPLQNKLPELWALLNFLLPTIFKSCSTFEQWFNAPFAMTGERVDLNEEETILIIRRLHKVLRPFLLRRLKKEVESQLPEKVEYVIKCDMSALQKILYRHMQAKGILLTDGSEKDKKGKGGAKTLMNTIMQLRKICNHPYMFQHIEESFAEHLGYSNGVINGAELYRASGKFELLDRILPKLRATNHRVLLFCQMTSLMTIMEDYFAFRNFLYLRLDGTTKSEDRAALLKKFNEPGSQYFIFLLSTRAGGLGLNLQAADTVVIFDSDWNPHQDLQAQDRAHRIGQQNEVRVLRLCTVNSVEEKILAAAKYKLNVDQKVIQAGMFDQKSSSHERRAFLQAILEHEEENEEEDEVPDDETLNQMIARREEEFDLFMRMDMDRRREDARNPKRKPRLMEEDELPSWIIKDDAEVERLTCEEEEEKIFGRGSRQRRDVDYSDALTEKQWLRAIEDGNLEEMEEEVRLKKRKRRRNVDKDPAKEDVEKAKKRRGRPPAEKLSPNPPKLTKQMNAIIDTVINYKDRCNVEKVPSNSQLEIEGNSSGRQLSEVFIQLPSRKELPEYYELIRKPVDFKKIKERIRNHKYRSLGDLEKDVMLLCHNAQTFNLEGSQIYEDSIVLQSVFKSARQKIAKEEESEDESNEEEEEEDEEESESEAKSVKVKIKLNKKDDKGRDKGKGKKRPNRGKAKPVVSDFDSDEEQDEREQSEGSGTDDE

Test [14] addresses T7, DNA repair protein RAD52 homolog (Homo sapiens, UniProt P43351).
T7 sequence (P43351 whole entry): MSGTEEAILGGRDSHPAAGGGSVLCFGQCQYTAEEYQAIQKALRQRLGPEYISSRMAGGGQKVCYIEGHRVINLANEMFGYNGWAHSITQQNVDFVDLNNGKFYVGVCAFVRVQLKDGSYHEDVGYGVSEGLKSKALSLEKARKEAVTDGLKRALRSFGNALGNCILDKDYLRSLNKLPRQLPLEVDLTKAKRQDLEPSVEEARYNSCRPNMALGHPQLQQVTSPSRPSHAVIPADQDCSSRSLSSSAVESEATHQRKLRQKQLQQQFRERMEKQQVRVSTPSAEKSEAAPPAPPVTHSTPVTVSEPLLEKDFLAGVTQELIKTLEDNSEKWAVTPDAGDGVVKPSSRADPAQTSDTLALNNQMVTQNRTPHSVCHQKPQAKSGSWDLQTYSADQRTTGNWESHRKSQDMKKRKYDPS
In kind it is functional, biochemical.

Molecules are shown by their SMILES. Active and inactive are the calls of the source.

T3 sequence (P65502 whole entry): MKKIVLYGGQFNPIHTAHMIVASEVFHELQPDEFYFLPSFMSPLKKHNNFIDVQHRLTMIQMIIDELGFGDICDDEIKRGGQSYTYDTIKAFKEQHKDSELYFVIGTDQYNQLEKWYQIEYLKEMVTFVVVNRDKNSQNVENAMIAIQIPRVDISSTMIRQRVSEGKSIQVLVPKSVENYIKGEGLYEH

With `COc1ccc(-n2nnnc2SCC(=O)c2ccc(OC)c(OC)c2)cc1`, in test [1], the EC50 was > 53 µM (inactive). In addition, the IC50 in test [2] was 33 µM (inactive); in [3], > 47.1 µM (inactive).
With `CCN(CC)CCOc1c(Br)ccc2c1sc1nc3n(c(=O)c12)CCC3`, in test [4], the AC50 (usually the concentration at which the activity in the assay is half-maximal) was 8.15 µM (active).
`CCOC(=O)c1ccccc1N1C(=O)C2Sc3nc(O)sc3C(/C=C/c3ccccc3)C2C1=O` (centres undefined): the IC50 is 12.2 µM (active) in [5] and 45.9 µM (active) in test [6].
With `Cc1ccc(N2C(=O)CC(N(CCc3ccccc3)C(=S)Nc3ccc(N(C)C)cc3)C2=O)cc1` (centres undefined), the IC50 is 36.8 µM (active) in test [5] and 77.7 µM (active) in test [6]. Further, the results for the concentration at half-maximal activity (AC50) in test [7] and in test [8] were 5.65 µM (active) and 154 µM (active), respectively.
Take `O=C(Nc1nnc(SCc2ccc(F)cc2)s1)C1Cc2ccccc2CN1C(=O)c1ccco1` (centres undefined): the values for the IC50 in [5] and in test [6] were 13.4 µM (active) and 34 µM (active), respectively.
As for `CCOC(=O)C(Nc1ccc2ccccc2c1)C(=O)OCC`, the IC50 in “cells” was 4.41 µM (active); in [10], > 50 µM (not active). Also, the EC50 in test [9] was > 91.2 µM (inactive); on Protein RecA it was 13 µM (active); in test [13], > 91.2 µM (inactive). Moreover, the CC50 – broadly, the concentration at which the toxic effect on the cells reaches its halfway point – in [11] was > 20 µM (active). In addition, in [12], the AC50 was 5.7 µM (active).
Regarding `C=COC(=O)c1sc2nc(C)cc(C)c2c1N`, the EC50 in test [9] and in test [13] was > 91.1 µM (inactive) in each case.
As for `COC(=O)c1cc(NC(=O)c2ccc(Cn3cc(Cl)cn3)o2)cc(C(=O)OC)c1`, the IC50 in [2] was 41 µM (inactive).
With `CCN(CC)CCN1CCN(c2cncc(-c3cccc(N)c3)n2)CC1`, the AC50 in test [4] was 100 µM (inactive); in test [14], 1.56 µM (active).
